Consider seven compounds from patent publication US20260250320A1, “LIPIDATED PEPTIDE INHIBITORS OF INTERLEUKIN-23 RECEPTOR” (Janssen Pharmaceutica NV, priority 2023, published 2026).

Experiment [1] concerns IL-23-stimulated phosphorylated STAT3 in peripheral blood mononuclear cells (PBMCs). Nature of the experiment: PBMC pSTAT3 Assay. Type of experiment: cell-based. The following applies: PBMCs from healthy donors; 30 min preincubation with peptide; IL-23 5 ng/mL for 30 min; phospho-STAT3 by MSD. The essentials:
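Phospho-STAT3 quantified by Meso Scale assay in lysates of PBMCs exposed to IL-23 (5 ng/mL, 30 min, 37 °C) after 30 min peptide pretreatment. Cells were cryopreserved donor PBMCs activated 4 days with anti-CD3 plus IL-1β (100 ng/mL) and starved ~4 h; IC50 reported.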

For experiment [2], the target named is T1, IL-23R (Homo sapiens, UniProt Q5VWK5).
T1 construct: HEK293 cells containing IL-23R, IL-12Rβ1 and a firefly luciferase reporter gene driven by a STAT-inducible promoter (Promega); host or cells: HEK293
T1 sequence (Q5VWK5 24-629): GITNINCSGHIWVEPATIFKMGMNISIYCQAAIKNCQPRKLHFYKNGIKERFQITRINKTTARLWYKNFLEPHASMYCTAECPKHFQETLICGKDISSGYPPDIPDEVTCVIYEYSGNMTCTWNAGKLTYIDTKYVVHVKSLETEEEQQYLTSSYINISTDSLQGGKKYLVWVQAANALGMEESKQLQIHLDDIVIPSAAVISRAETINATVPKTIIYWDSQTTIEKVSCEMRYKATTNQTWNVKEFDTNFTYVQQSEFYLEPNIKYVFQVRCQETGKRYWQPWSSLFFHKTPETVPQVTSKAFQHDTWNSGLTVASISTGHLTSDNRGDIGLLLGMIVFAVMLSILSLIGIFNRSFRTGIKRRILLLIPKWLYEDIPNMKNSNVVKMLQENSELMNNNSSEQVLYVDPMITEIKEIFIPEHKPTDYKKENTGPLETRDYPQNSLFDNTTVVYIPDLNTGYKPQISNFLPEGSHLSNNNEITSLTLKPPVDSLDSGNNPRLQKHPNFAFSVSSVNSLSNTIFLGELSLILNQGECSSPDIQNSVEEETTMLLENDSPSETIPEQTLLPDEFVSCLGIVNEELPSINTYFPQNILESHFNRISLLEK
The experiment can be described thus: IL23R Reporter Assay. In kind it is cell-based. The note with it: HEK293 cells containing IL-23R, IL-12Rβ1 and STAT-inducible firefly luciferase reporter; 10 ng/mL IL-23 (EC90); 5 h. An outline of the steps: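 IC50 values were fitted with a 4-parameter Hill equation to luciferase signal, scaled between IL-23-only wells (0% inhibition) and 30 μM reference inhibitor (100%). The readout was a STAT-inducible reporter in IL-23R/IL-12Rβ1 HEK293 cells, stimulated with added 10 ng/mL IL-23 (EC90) for 5 h at 37° C and developed with BioGlo.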
Background: A reporter such as luciferase makes a cellular process visible.

*1 amine or outer side, *2 acyl side, *3 side chain or, on linkers, in order; H or OH if unused. Where a SMILES comes first, the peptide text is derived from it. Bridges are numbered along the chain shown (N, C = ends). Side-chain parts run from the residue outwards. [ ]: non-standard residue; d: D form. The star is where a group is joined. X18 = O=C(O)CCCCCCCCCCCCCCCCC(=O)N[C@@H](CCC(=O)NCCOCCOCCOCCOCCOCOCCOCCOCCOCCOCCOCCOCCC(=O)*)C(=O)O; Me3N+(CH2)2O(CH2)2O(CH2)2CO = C[N+](C)(C)CCOCCOCCC(=O)*; PEG12 = NCCOCCOCCOCCOCCOCCOCCOCCOCCOCCOCCOCCOCCC(=O)O; CH2CH2OCH2CH2OCH2CH2NMe3+ = C[N+](C)(C)CCOCCOCC*; Trp(7-Me) = Cc1cccc2c(C[C@H](N)C(=O)O)c[nH]c12; C18 diacid = O=C(O)CCCCCCCCCCCCCCCCC(=O)*; γGlu = O=C(O)[C@H](CCC(=O)[*:2])N[*:1]; 2Nal = N[C@@H](Cc1ccc2ccccc2c1)C(=O)O; AEF = NCCOc1ccc(C[C@H](N)C(=O)O)cc1; X2 = C[N+](C)(C)C[C@@H](CC(=O)O)N*; 2Pal = N[C@@H](Cc1ccccn1)C(=O)O; 3Pal = N[C@@H](Cc1cccnc1)C(=O)O; Lys(Me) = CNCCCC[C@H](N)C(=O)O; Pen = CC(C)(S)[C@H](N)C(=O)O; Suc = O=C(CCC(=O)[*:2])[*:1]; Thp = NC1(C(=O)O)CCOCC1; AEEA = NCCOCCOCC(=O)O; Sar = CNCC(=O)O

For orientation: IC50 means the midpoint of a concentration-inhibition curve. Read a high IC50 as a need for much substance. Regarding `CC(=O)NCCCC[C@@H]1NC(=O)[C@H](Cc2c[nH]c3c(C)cccc23)NC(=O)[C@H]([C@@H](C)O)NC(=O)[C@H](CCCCNC(=O)COCCOCCNC(=O)COCCOCCNC(=O)CC[C@H](NC(=O)CCCCCCCCCCCCCCCCC(=O)O)C(=O)O)NC(=O)[C@@H](NC(C)=O)C(C)(C)SSC(C)(C)[C@@H](C(=O)N[C@@H](Cc2ccc(OCCN)cc2)C(=O)N[C@@H](Cc2ccc3ccccc3c2)C(=O)NC2(C(=O)N[C@@H](CCCCNC(=O)CCC(=O)N[C@H](CC(=O)O)C[N+](C)(C)C)C(=O)N[C@@H](CC(N)=O)C(=O)N[C@@H](Cc3cccnc3)C(=O)N(C)CC(N)=O)CCOCC2)NC1=O` [compound 15, MeCO-r-Pen(3)-N-T-7MeW-K(PEG2PEG2gEC18OH)-Pen(3)-AEF-2Nal-THP-K(d)-N-3Pya-Sar-CONH2] (Ac-[Pen]K([AEEA-AEEA-γGlu-C18 diacid])T[Trp(7-Me)]K(Ac)[Pen][AEF][2Nal][Thp]K([Suc-X2])N[3Pal][Sar]-NH2; disulfide 1-6), the results for the IC50 in experiment [1] and in experiment [2] were 0.5 to 5 nM and 50 to 500 nM, respectively.
Taken in the same sequence, the figures for `CC(=O)NCCCC[C@@H]1NC(=O)[C@H](Cc2c[nH]c3c(C)cccc23)NC(=O)[C@H]([C@@H](C)O)NC(=O)[C@H](CCCCNC(=O)COCCOCCNC(=O)COCCOCCNC(=O)CC[C@H](NC(=O)CCCCCCCCCCCCCCCCC(=O)O)C(=O)O)NC(=O)[C@@H](NC(=O)[C@@H](CCCNC(=N)N)NC(C)=O)C(C)(C)SSC(C)(C)[C@@H](C(=O)N[C@@H](Cc2ccc(OCCN)cc2)C(=O)N[C@@H](Cc2ccc3ccccc3c2)C(=O)NC2(C(=O)N[C@@H](CCCCN(C)C(=O)CCOCCOCC[N+](C)(C)C)C(=O)N[C@@H](CC(N)=O)C(=O)N[C@@H](Cc3ccccn3)C(=O)N(C)CC(N)=O)CCOCC2)NC1=O` [compound 74, MeCO-r-Pen(3)-K(PEG2PEG2gEC18OH)-T-7MeW-K(Ac)-Pen(3)-AEF-2Nal-THP-K(NMecPEG3a)-N-3Pya-Sar-CONH2] (Ac-[dR][Pen]K([AEEA-AEEA-γGlu-C18 diacid])T[Trp(7-Me)]K(Ac)[Pen][AEF][2Nal][Thp][Lys(Me)](Me3N+(CH2)2O(CH2)2O(CH2)2CO)N[2Pal][Sar]-NH2; disulfide 2-7) were less than 0.5 nM and less than 50 nM.
Taken in the same sequence, the figures for `CC(=O)NCCCC[C@@H]1NC(=O)[C@H](Cc2c[nH]c3c(C)cccc23)NC(=O)[C@H]([C@@H](C)O)NC(=O)[C@H](CC(N)=O)NC(=O)[C@@H](NC(=O)[C@@H](CCCCNC(=O)CCOCCOCCOCCOCCOCCOCCOCCOCCOCCOCCOCCOCCNC(=O)CC[C@H](NC(=O)CCCCCCCCCCCCCCCCC(=O)O)C(=O)O)NC(C)=O)C(C)(C)SSC(C)(C)[C@@H](C(=O)N[C@@H](Cc2ccc(OCCN)cc2)C(=O)N[C@@H](Cc2ccc3ccccc3c2)C(=O)NC2(C(=O)N[C@@H](CCCCNC(C)=O)C(=O)N[C@@H](CC(N)=O)C(=O)N[C@@H](Cc3cccnc3)C(=O)N(C)CC(N)=O)CCOCC2)NC1=O` [compound 98, MeCO-k(PEG12gEC18OH)-Pen(3)-N-T-7MeW-K(Ac)-Pen(3)-AEF-2Nal-THP-K(Ac)-N-3Pya-Sar-CONH2] (Ac-[dK]([PEG12-γGlu-C18 diacid])[Pen]NT[Trp(7-Me)]K(Ac)[Pen][AEF][2Nal][Thp]K(Ac)N[3Pal][Sar]-NH2; disulfide 2-7) were less than 0.5 nM and less than 50 nM.
For `CC(=O)N[C@H](CCCNC(=N)N)C(=O)N[C@@H]1C(=O)N[C@@H](CC(N)=O)C(=O)N[C@@H]([C@@H](C)O)C(=O)N[C@@H](Cc2c[nH]c3c(C)cccc23)C(=O)N[C@@H](CCCCN(C)C(=O)CCOCCOCC[N+](C)(C)C)C(=O)N[C@H](C(=O)N[C@@H](Cc2ccc(OCCN)cc2)C(=O)N[C@@H](Cc2ccc3ccccc3c2)C(=O)NC2(C(=O)N[C@@H](CCC(=O)O)C(=O)N[C@@H](CC(N)=O)C(=O)N[C@@H](Cc3cccnc3)C(=O)N(C)CC(=O)N[C@@H](CCCCNC(=O)COCCOCCNC(=O)COCCOCCNC(=O)CC[C@H](NC(=O)CCCCCCCCCCCCCCCCC(=O)O)C(=O)O)C(N)=O)CCOCC2)C(C)(C)SSC1(C)C` [compound 70, MeCO-r-Pen(3)-N-T-7MeW-K(NMecPEG3a)-Pen(3)-AEF-2Nal-THP-E-N-3Pya-Sar-K(PEG2PEG2C18OH)-CONH2] (Ac-[dR][Pen]NT[Trp(7-Me)][Lys(Me)](Me3N+(CH2)2O(CH2)2O(CH2)2CO)[Pen][AEF][2Nal][Thp]EN[3Pal][Sar]K([AEEA-AEEA-γGlu-C18 diacid])-NH2; disulfide 2-7), the IC50 in experiment [1] was less than 0.5 nM; in experiment [2], less than 50 nM.
Taken in the same sequence, the figures for `CC(=O)NCCCC[C@@H]1NC(=O)[C@H](Cc2c[nH]c3c(C)cccc23)NC(=O)[C@H]([C@@H](C)O)NC(=O)[C@H](CCCCNC(=O)CCOCCOCCOCCOCCOCCOCCOCOCCOCCOCCOCCOCCNC(=O)CC[C@H](NC(=O)CCCCCCCCCCCCCCCCC(=O)O)C(=O)O)NC(=O)[C@@H](NC(C)=O)C(C)(C)SSC(C)(C)[C@@H](C(=O)N[C@@H](Cc2ccc(OCCN)cc2)C(=O)N[C@@H](Cc2ccc3ccccc3c2)C(=O)NC2(C(=O)N[C@@H](CCC(=O)O)C(=O)N[C@@H](CC(N)=O)C(=O)N[C@@H](Cc3cccnc3)C(=O)N(C)CC(N)=O)CCOCC2)NC1=O` [compound 97, MeCO-Pen(3)-K(PEG12gEC18OH)-T-7MeW-K(Ac)-Pen(3)-AEF-2Nal-THP-E-N-3Pya-Sar-CONH2] (Ac-[Pen]K(X18)T[Trp(7-Me)]K(Ac)[Pen][AEF][2Nal][Thp]EN[3Pal][Sar]-NH2; disulfide 1-6) were less than 0.5 nM and less than 50 nM.
Taken in the same sequence, the figures for `CC(=O)N(C)CCCC[C@@H]1NC(=O)[C@H](Cc2c[nH]c3c(C)cccc23)NC(=O)[C@H]([C@@H](C)O)NC(=O)[C@H](CC(=O)N(C)C)NC(=O)[C@@H](NC(=O)CCOCCOCCOCCOCCOCCOCCOCCOCCOCCOCCOCCOCCNC(=O)CC[C@H](NC(=O)CCCCCCCCCCCCCCCCC(=O)O)C(=O)O)C(C)(C)SSC(C)(C)[C@@H](C(=O)N[C@@H](Cc2ccc(OCCOCCOCC[N+](C)(C)C)cc2)C(=O)N[C@@H](Cc2ccc3ccccc3c2)C(=O)NC2(C(=O)N[C@@H](CCCCN(C)C(C)=O)C(=O)N[C@@H](CC(N)=O)C(=O)N[C@@H](Cc3cccnc3)C(=O)N(C)CC(=O)N(C)C)CCOCC2)NC1=O` [compound 108, HOC18gEPEG12CO-Pen(3)-N(N(Me)2)-T-7MeW-K(NMeAc)-Pen(3)-APEG3F-2Nal-THP-K(NMeAc)-N-3Pya-Sar-CON(Me)2] ({C18 diacid-γGlu-PEG12}-[Pen]D(NMe2)T[Trp(7-Me)][Lys(Me)](Ac)[Pen]Y(CH2CH2OCH2CH2OCH2CH2NMe3+)[2Nal][Thp][Lys(Me)](Ac)N[3Pal][Sar]-NMe2; disulfide 1-6) were less than 0.5 nM and less than 50 nM.
For `CC(=O)NCCCC[C@@H]1NC(=O)[C@H](Cc2c[nH]c3c(C)cccc23)NC(=O)[C@H]([C@@H](C)O)NC(=O)[C@H](CCCCNC(=O)COCCOCCNC(=O)COCCOCCNC(=O)CC[C@H](NC(=O)CCCCCCCCCCCCCCCCC(=O)O)C(=O)O)NC(=O)[C@@H](NC(=O)[C@@H](CCCNC(=N)N)NC(C)=O)C(C)(C)SSC(C)(C)[C@@H](C(=O)N[C@@H](Cc2ccc(OCCN)cc2)C(=O)N[C@@H](Cc2ccc3ccccc3c2)C(=O)NC2(C(=O)N[C@@H](CCCCNC(=O)CCC(=O)N[C@H](CC(=O)O)C[N+](C)(C)C)C(=O)N[C@@H](CC(N)=O)C(=O)N[C@@H](Cc3cccnc3)C(=O)N(C)CC(N)=O)CCOCC2)NC1=O` [compound 12, MeCO-r-Pen(3)-K(PEG2PEG2gEC18OH)-T-7MeW-K(Ac)-Pen(3)-AEF-2Nal-THP-K(d)-N-3Pya-Sar-CONH2] (Ac-[dR][Pen]K([AEEA-AEEA-γGlu-C18 diacid])T[Trp(7-Me)]K(Ac)[Pen][AEF][2Nal][Thp]K([Suc-X2])N[3Pal][Sar]-NH2; disulfide 2-7), the IC50 in experiment [1] was 0.5 to 5 nM; in experiment [2] it was less than 50 nM.
